Measured values published in patent publication US11566007B2, “Ras inhibitors” (Revolution Medicines, Inc., priority 2019, dated 2023).
“And” between values parts separate entries of the source, which are not always exact repeats. Equal entries are not always repeated. Where two headings read alike, the source gives them in different places.

Tests used:
[1] = test system: NCI-H358 cells (K-Ras G12C); experiment: Potency assay: pERK in NCI-H358 cells; assay type: cell-based, human; conditions: Homo sapiens, NCI-H358; H358 KRAS G12C; read-out: pERK EC50
Method in brief: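 Compounds are dosed as ten 3-fold dilutions from a 10 mM DMSO stock, in duplicate, and left on cells for 4 h at 37 °C, 5% CO2. Phospho-ERK1/2 is then quantified by AlphaLISA SureFire Ultra or In-Cell Western, and IC50 is derived from a 4-parameter sigmoid against log concentration.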

KRAS G12S = KRAS G12S (Homo sapiens (Human), UniProt P01116+P62937, G12S); experiment: Ras-Raf (BRAF RBD) disruption / FRET / MOA assay, KRAS G12S; assay type: biochemical; conditions: Ras-Raf disruption/FRET/MOA assay; class symbols; read-out: KRAS G12S FRET data IC50
Method in brief: (§1)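 Ternary complex formation (Ras–compound–cyclophilin A) displacing BRAF RBD, monitored by TR-FRET. Three hours at 25° C with compound (top 30 μM final), then 1.5 h with the labelled antibodies. Lower ratio than DMSO indicates disruption; IC50 reported.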

NCI-H358 (K-Ras G12C) = experiment: CellTiter-Glo cell viability assay, NCI-H358; assay type: cell-based, human; conditions: NCI-H358, 5-day treatment, class symbols, read-out: Additional H358 Cell Viability assay data (K-Ras G12C, IC50)
Method in brief: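 Luminescent viability readout on day 5 after direct compound addition to plated cells; plates sat ~30 min at room temperature before reading. Values expressed as percent of mean DMSO signal, curves fit with a four-parameter logistic model.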

KRAS WT = KRAS WT (Homo sapiens (Human), UniProt P01116+P62937); experiment: Ras-Raf (BRAF RBD) disruption / FRET / MOA assay, KRAS WT; assay type: biochemical; conditions: read-out: IC50* KRAS WT FRET data
Method in brief: as §1

NRAS Q61R = NRAS Q61R (Homo sapiens (Human), UniProt P01111+P62937, Q61R); experiment: Ras-Raf (BRAF RBD) disruption / FRET / MOA assay, NRAS Q61R; assay type: biochemical; conditions: NRAS Q61R; Ras-Raf disruption/FRET/MOA assay; read-out: IC50* NRAS Q61R FRET data
Method in brief: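 Compounds were tested as a 10-point 3-fold dilution series from 30 μM final for their ability to drive ternary complex formation between nucleotide-loaded Ras and cyclophilin A, displacing the BRAF RBD. After 3 h at 25° C., anti-His Eu-W1024 (10 nM) and anti-GST allophycocyanin (50 nM) were added for 1.5 h. A TR-FRET ratio decrease versus DMSO gave IC50.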

Chain of NRAS Q61R (P01111 whole entry Q61R): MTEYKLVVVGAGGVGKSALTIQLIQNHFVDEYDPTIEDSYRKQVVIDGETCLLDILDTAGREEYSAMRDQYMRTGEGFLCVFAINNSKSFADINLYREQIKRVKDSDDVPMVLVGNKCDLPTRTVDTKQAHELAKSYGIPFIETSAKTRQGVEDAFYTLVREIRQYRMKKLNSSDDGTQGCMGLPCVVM
Chain of NRAS Q61R (P62937 whole entry): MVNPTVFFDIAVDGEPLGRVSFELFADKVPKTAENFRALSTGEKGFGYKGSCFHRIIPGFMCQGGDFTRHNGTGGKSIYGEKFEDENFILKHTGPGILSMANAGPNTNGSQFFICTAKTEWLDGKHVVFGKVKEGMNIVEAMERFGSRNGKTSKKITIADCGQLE
Chain of KRAS G12S (P01116-2 other isoform, or with tags, fused parts or gaps G12S): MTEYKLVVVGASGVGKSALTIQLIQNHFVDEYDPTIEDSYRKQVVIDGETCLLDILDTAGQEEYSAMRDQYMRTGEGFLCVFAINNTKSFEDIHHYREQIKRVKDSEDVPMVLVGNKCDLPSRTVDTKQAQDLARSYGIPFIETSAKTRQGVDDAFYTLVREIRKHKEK
Chain of KRAS G12S (P62937 whole entry): as the sequence (P62937 whole entry) above
Chain of KRAS WT (P01116-2 other isoform, or with tags, fused parts or gaps): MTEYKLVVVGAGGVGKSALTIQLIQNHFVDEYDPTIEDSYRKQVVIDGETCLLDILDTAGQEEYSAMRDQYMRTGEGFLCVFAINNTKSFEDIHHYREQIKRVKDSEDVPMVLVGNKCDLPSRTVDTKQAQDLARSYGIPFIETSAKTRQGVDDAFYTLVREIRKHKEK
Chain of KRAS WT (P62937 whole entry): as the sequence (P62937 whole entry) above

Row | IC50 (NCI-H358 (K-Ras G12C)) [nM] | SMILES | EC50 [1] [nM] | IC50 (KRAS G12S) | IC50 (NCI-H358 (K-Ras G12C); Homo sapiens, NCI-H358, 120 h) [nM] | IC50 (KRAS WT) | IC50 (NRAS Q61R) [nM]
1 | < 10 | C=CC(=O)N1CC[C@H](C(=O)N(C)[C@H](C(=O)N[C@H]2Cc3cc(O)cc(c3)-c3ccc4c(c3)c(c(-c3cc(C)ccc3[C@H](C)OC)n4CC)CC(C)(C)COC(=O)[C@@H]3CCCN(N3)C2=O)C(C)C)C1 (atropisomer, axis not shown) [Example A167] | < 5000 | 1000 to 10000 nM and 10 to 100 nM | 10 to 100 | 1000 to 10000 nM and 10 to 100 nM | 100 to 1000
2 |  | C=CC(=O)NC[C@H]1CCN1C(=O)N(C)[C@H](C(=O)N[C@H]1Cc2nc(cs2)-c2ccc3c(c2)c(c(-c2cccnc2[C@H](C)OC)n3CC)CC(C)(C)COC(=O)[C@@H]2CCCN(N2)C1=O)C(C)C (atropisomer, axis not shown) [Example A356] | < 5000 | 1000 to 10000 nM | < 10 | 100 to 1000 nM | 100 to 1000
3 |  | C=CC(=O)N1CC[C@H](C(=O)N(C)[C@H](C(=O)N[C@H]2Cc3cc(O)cc(c3)-c3ccc4c(c3)c(c(-c3cn(C)cn3)n4CC)CC(C)(C)COC(=O)[C@@H]3CCCN(N3)C2=O)C(C)C)C1 [Example A113] | < 5000 | 1000 to 10000 nM | 100 to 1000 | > 10000 nM | > 10000
4 |  | CCn1c(-c2cccnc2[C@H](C)OC)c2c3cc(ccc31)-c1csc(n1)C[C@H](NC(=O)[C@H](C(C)C)N(C)C(=O)N1CCC3(CC1)CN(C(=O)/C=C/C(F)F)C3)C(=O)N1CCC[C@H](N1)C(=O)OCC(C)(C)C2 (atropisomer, axis not shown) [Example A683] | < 5000 | 100 to 1000 nM | 10 to 100 | 100 to 1000 nM | 100 to 1000
5 |  | C=CC(=O)N1CCC2(CC1)CCN2C(=O)N(C)[C@H](C(=O)N[C@H]1Cc2nc(cs2)-c2ccc3c(c2)c(c(-c2cccnc2[C@H](C)OC)n3CC)CC(C)(C)COC(=O)[C@@H]2CCCN(N2)C1=O)C(C)C (atropisomer, axis not shown) [Example A678] | < 5000 | 100 to 1000 nM | 10 to 100 | 100 to 1000 nM | 10 to 100
6 |  | C=CC(=O)N1CC(OC[C@H](C(=O)N[C@H]2Cc3cccc(c3)-c3ccc4c(c3)c(c(-c3cccnc3[C@H](C)OC)n4CC(F)(F)F)CC(C)(C)COC(=O)[C@@H]3CCCN(N3)C2=O)C(C)C)C1 (atropisomer, axis not shown) [Example A344] | < 5000 | 1000 to 10000 nM | < 10 | 1000 to 10000 nM | 1000 to 10000
7 |  | CO[C@@H](C)c1ncccc1-c1c2c3cc(ccc3n1CC(F)(F)F)-c1csc(n1)C[C@H](NC(=O)[C@H](C(C)C)N(C)C(=O)N1CCN(C(=O)/C=C/CN(C)C)C3(CC3)C1)C(=O)N1CCC[C@H](N1)C(=O)OCC(C)(C)C2 (atropisomer, axis not shown) [Example A664] | < 5000 | 10 to 100 nM | 10 to 100 | 10 to 100 nM | 10 to 100
8 |  | C=CC(=O)N(C)C1CN(C(=O)N(C)[C@H](C(=O)N[C@H]2Cc3nc(cs3)-c3ccc4c(c3)c(c(-c3cccnc3[C@H](C)OC)n4CC)CC(C)(C)COC(=O)[C@@H]3CCCN(N3)C2=O)C(C)C)C1 (atropisomer, axis not shown) [Example A463] | < 5000 | 100 to 1000 nM | < 10 | 100 to 1000 nM | 100 to 1000
9 |  | CO[C@@H](C)c1ncccc1-c1c2c3cc(ccc3n1CC(F)(F)F)-c1nc(co1)C[C@H](NC(=O)[C@@H](COC1CN(C(=O)C#CC(C)(C)N(C)C)C1)C(C)C)C(=O)N1CCC[C@H](N1)C(=O)OCC(C)(C)C2 (atropisomer, axis not shown) [Example A674] | < 5000 | > 10000 nM | < 10 | > 10000 nM | > 10000
10 |  | C=CC(=O)N1CCOC2(C1)CN(C(=O)N(C)[C@H](C(=O)N[C@H]1Cc3cccc(c3)-c3ccc4c(c3)c(c(-c3cccnc3[C@H](C)OC)n4CC(F)(F)F)CC(C)(C)COC(=O)[C@@H]3CCCN(N3)C1=O)C(C)C)C2 (atropisomer, axis not shown) [Example A538] | < 5000 | 100 to 1000 nM | 10 to 100 | 100 to 1000 nM | 100 to 1000
11 |  | C=CC(=O)N1CCN(C(=O)N(C)[C@H](C(=O)N[C@H]2Cc3nc(cs3)-c3ccc4c(c3)c(c(-c3cccnc3[C@H](C)OC)n4CC)CC(C)(C)COC(=O)[C@@H]3CCCN(N3)C2=O)C(C)C)CC12CC2 (atropisomer, axis not shown) [Example A417] | < 5000 | 100 to 1000 nM | 10 to 100 | 100 to 1000 nM | 10 to 100
12 |  | CCn1c(-c2cccnc2[C@H](C)OC)c2c3cc(ccc31)-c1csc(n1)C[C@H](NC(=O)[C@H](C(C)C)N(C)C(=O)N1CCN(C(=O)/C=C/CN(C)C)C3(CC3)C1)C(=O)N1CCC[C@H](N1)C(=O)OCC(C)(C)C2 (atropisomer, axis not shown) [Example A701] | < 5000 | 100 to 1000 nM | 10 to 100 | 100 to 1000 nM | 100 to 1000
13 |  | C=CC(=O)N1CCOC2(C1)CN(C(=O)N(C)[C@H](C(=O)N[C@H]1Cc3nc(cs3)-c3ccc4c(c3)c(c(-c3cccnc3[C@H](C)OC)n4CC(F)(F)F)CC(C)(C)COC(=O)[C@@H]3CCCN(N3)C1=O)C(C)C)C2 (atropisomer, axis not shown) [Example A604] | < 5000 | 100 to 1000 nM | < 10 | 100 to 1000 nM | 100 to 1000
14 |  | C=CC(=O)N(C)[C@H]1CC1N(C)C(=O)N(C)[C@H](C(=O)N[C@H]1Cc2nc(cs2)-c2ccc3c(c2)c(c(-c2cccnc2[C@H](C)OC)n3CC)CC(C)(C)COC(=O)[C@@H]2CCCN(N2)C1=O)C(C)C (some centres unmarked) [Example A738] | < 5000 | 1000 to 10000 nM | < 10 | 100 to 1000 nM | 100 to 1000
15 |  | CCn1c(-c2cccnc2[C@H](C)OC)c2c3cc(ccc31)-c1cccc(c1)C[C@H](NC(=O)[C@H](C(C)C)N1CC[C@@]3(CCN(C(=O)C#C[C@H]4COCCN4C4COC4)C3)C1=O)C(=O)N1CCC[C@H](N1)C(=O)OCC(C)(C)C2 (atropisomer, axis not shown) [Example A567] | < 5000 | 1000 to 10000 nM | < 10 | 1000 to 10000 nM | 1000 to 10000
16 |  | CCn1c(-c2cccnc2[C@H](C)OC)c2c3cc(ccc31)-c1csc(n1)C[C@H](NC(=O)[C@H](C(C)C)N(C)C(=O)N1CCC3(CC1)CN(C(=O)/C=C/CF)C3)C(=O)N1CCC[C@H](N1)C(=O)OCC(C)(C)C2 (atropisomer, axis not shown) [Example A622] | < 5000 | 100 to 1000 nM | 10 to 100 | 100 to 1000 nM | 100 to 1000
17 |  | C=CC(=O)N1CC[C@H](C(=O)N(C)[C@H](C(=O)N[C@H]2Cc3cccc(c3)-c3ccc4c(c3)c(c(-c3cc5c(nc3[C@H](C)OC)CCN(C)C5)n4CC)CC(C)(C)COC(=O)[C@@H]3CCCN(N3)C2=O)C(C)C)C1 (atropisomer, axis not shown) [Example A461] | < 5000 | 1000 to 10000 nM | < 10 | 1000 to 10000 nM | 1000 to 10000
18 |  | C=CC(=O)N1CC[C@H](C(=O)N(C)[C@@H](CC(F)(F)F)C(=O)N[C@H]2Cc3cccc(c3)-c3ccc4c(c3)c(c(-c3cccnc3[C@H](C)OC)n4CC)CC(C)(C)COC(=O)[C@@H]3CCCN(N3)C2=O)C1 (atropisomer, axis not shown) [Example A639] | < 5000 | 1000 to 10000 nM | 100 to 1000 | 1000 to 10000 nM | 1000 to 10000
19 |  | C=CC(=O)N1CCOC2(CCN(C(=O)N(C)[C@H](C(=O)N[C@H]3Cc4cc(CF)cc(c4)-c4ccc5c(c4)c(c(-c4cccnc4[C@H](C)OC)n5CC(F)(F)F)CC(C)(C)COC(=O)[C@@H]4CCCN(N4)C3=O)C(C)C)CC2)C1 (atropisomer, axis not shown) [Example A605] | < 5000 | 100 to 1000 nM | 10 to 100 | 10 to 100 nM | 100 to 1000
20 |  | CCn1c(-c2cccnc2[C@H](C)OC)c2c3cc(ccc31)N1CCC[C@@H](C[C@H](NC(=O)[C@@H](COC3CN(C(=O)C#CC(C)(C)N(C)C)C3)C(C)C)C(=O)N3CCC[C@H](N3)C(=O)OCC(C)(C)C2)C1 (atropisomer, axis not shown) [Example A715, (2R)-2-(((1-(4-(dimethylamino)-4-methylpent-2-ynoyl)azetidin-3-yl)oxy)methyl)-N-((2^3S,6^3S,4S)-1^1-ethyl-1^2-(2-((S)-1-methoxyethyl)pyridin-3-yl)-10,10-dimethyl-5,7-dioxo-6^1,6^2,6^3,6^4,6^5,6^6-hexahydro-1^1H-8-oxa-1(5,3)-indola-6(1,3)-pyridazina-2(1,3)-piperidinacycloundecaphane-4-yl)-3-methylbutanamide] | < 5000 | > 10000 nM | 10 to 100 | > 10000 nM | > 10000
